Data from PMC6627609, “Targeting Quorum Sensing: High-Throughput Screening to Identify Novel LsrK Inhibitors” (International Journal of Molecular Sciences, 2019).
Values joined by “and” are separate entries in the source; they are usually repeats but may differ in a detail not shown here. Identical values can stand only once.

Legend:
[1] = target: LsrK (Salmonella typhimurium, UniProt Q8ZKQ6); assay: biochemical; format: biochemical, S. typhimurium
[2] = cited from earlier work
[3] = system: E. coli LW7 pLW11; assay: AI-2 QS interference assay; format: cell-based; settings: for IC50: dose-response in the presence of PAβN, read-out: IC50 AI-2 QS inhibition
[4] = target: T1, His-LsrK (Salmonella typhimurium, UniProt Q8ZKQ6); assay: MST assay; format: binding, S. typhimurium; settings: 95% CI
[5] = target: T1, His-LsrK; assay: Thermal shift assay; format: binding, S. typhimurium; settings: dose range of test compound
Description: Compounds were added to qPCR plates by Echo acoustic dispenser with a DMSO backfill to maintain a constant final concentration of DMSO in each well (the assay is tolerant up to 8% DMSO with no effect on Tm of LsrK). LsrK protein was added at a concentration of 1 µg per well in a volume of 10 µL with 1× Thermo thermal shift dye or 5× Sypro Orange dye (used for aurin tricarboxylic acid as this compound fluoresces with Thermo dye in 25 mM TEA, 200 µM MgCl2, pH 7.1). Appropriate DMSO-only negative controls and 1 mM ATP/DMSO positive controls were included in each test occasion. Using an Applied Biosystems Quant Studio 5 qPCR machine (Thermo Fisher Scientific, Waltham, MA, USA) the following thermal shift protocol was used: step 1—hold at 25 °C for 1 min; step 2—heat at 0.05 °C/s dissociation then hold at 99 °C for 1 min. Filter setting for Thermo dye: Ex/Em 580/623 nm and for Sypro Orange dye: Ex/Em 470/520 nm.

[6] = system: His-tagged control peptide or SDS denatured His-LsrK; assay: MST assay, specificity controls; format: binding
[7] = system: E. coli pBAC-lacZ; assay: Control strain β-gal assay (QS-independent lac promoter); format: cell-based

Chain of LsrK (Q8ZKQ6 whole entry): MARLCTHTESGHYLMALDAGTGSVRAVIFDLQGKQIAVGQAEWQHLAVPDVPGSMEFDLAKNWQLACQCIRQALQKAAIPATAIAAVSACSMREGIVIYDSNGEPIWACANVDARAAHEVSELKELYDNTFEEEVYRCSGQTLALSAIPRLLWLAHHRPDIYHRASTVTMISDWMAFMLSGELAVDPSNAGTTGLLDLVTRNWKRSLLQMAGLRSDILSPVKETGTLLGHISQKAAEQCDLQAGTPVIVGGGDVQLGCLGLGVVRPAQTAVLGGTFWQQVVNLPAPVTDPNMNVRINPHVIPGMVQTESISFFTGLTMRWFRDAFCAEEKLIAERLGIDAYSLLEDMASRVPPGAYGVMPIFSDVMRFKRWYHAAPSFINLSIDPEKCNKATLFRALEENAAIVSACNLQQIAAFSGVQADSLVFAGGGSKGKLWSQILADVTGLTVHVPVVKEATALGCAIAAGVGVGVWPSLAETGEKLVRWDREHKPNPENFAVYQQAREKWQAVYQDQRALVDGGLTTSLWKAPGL
T1 sequence (Q8ZKQ6 whole entry): as above

Row | SMILES | IC50 [1] [µM] | inhibition at 50 µM [1] [%] | solubility [2] | inhibition of AI-2 mediated QS ([3]; 10 µM, in the presence of PAβN) | inhibition at 50 µM ([3]; Escherichia coli, 50 µM, in the presence of PAβN, read-out: inhibition of AI-2 mediated QS) [%] | IC50 ([3]; Escherichia coli) [µM] | Kd [4] | shift in the Tm of His-LsrK (in words) [5] | binding in MST to control peptide or SDS denatured His-LsrK [6] | effect on β-gal expression or activity in the control strain [7] | inhibition of AI-2 mediated QS ([3]; 50 µM, in the presence of PAβN) | inhibition at 10 µM ([3]; Escherichia coli, 10 µM, in the presence of PAβN, read-out: inhibition of AI-2 mediated QS) [%]
1 | CC1=C(O)C(=O)C=C2C1=CC=C1[C@@]2(C)CC[C@@]2(C)[C@@H]3C[C@](C)(C(=O)O)CC[C@]3(C)CC[C@]12C [CELASTROL] | 4 | 109 | poor solubility |  |  |  |  |  |  |  |  | 
2 | C[C@]1(OC(=O)/C=C/c2ccccc2)C[C@@H](O)[C@]2(O)C=CO[C@@H](O[C@@H]3O[C@H](CO)[C@@H](O)[C@H](O)[C@H]3O)[C@@H]21 [HARPAGOSIDE] | 10 | 108 |  | only minor | ~50 | 14 | 18.4 ± 0.9 µM | significant, dose-dependent, positive shift in the Tm | No binding |  |  | 
3 | O=C1C=CC(=C(c2ccc(O)cc2)c2ccc(O)cc2)C=C1 [ROSOLIC ACID] | 1 | 119 |  |  |  | 11 | 100 µM and ~100 µM | positively stabilizes His-LsrK in thermal shift at high concentrations | No binding | marginally affected | nearly complete inhibition | 68
